Measured values reported in the CheMixHub viscosity set.
Several values for one entry are separate records, joined by “and”; a condition that tells them apart may be missing. Identical values can stand only once.

Assays:
[1] = xn = mol fraction of the nth substance listed

OCc1ccccc1
Settings | viscosity
293.15 K, 100 kPa | 6.421 mPa·s
293.15 K, 101.33 kPa | 6.536 mPa·s
298.15 K, 101 kPa | 4.936 mPa·s and 5.54 mPa·s and 5.737 mPa·s
298.15 K, 101.3 kPa | 5.313 mPa·s
298.15 K, 101.33 kPa | 5.276 mPa·s
303.15 K, 101.3 kPa | 4.609 mPa·s and 4.515 mPa·s
308.15 K, 101 kPa | 3.66 mPa·s and 4.045 mPa·s
308.15 K, 101.3 kPa | 3.877 mPa·s
308.15 K, 101.33 kPa | 3.891 mPa·s
313.15 K, 101 kPa | 3.121 mPa·s and 3.614 mPa·s and 3.51 mPa·s
318.15 K, 101.33 kPa | 2.945 mPa·s
323.15 K, 101 kPa | 2.646 mPa·s and 2.548 mPa·s
323.15 K, 101.33 kPa | 2.591 mPa·s

NCCO
viscosity
Settings | 293.15 K | 298.15 K | 303.15 K | 313.15 K | 318.15 K | 323.15 K
101 kPa | 31.3 mPa·s | 18.64 mPa·s | 15.34 mPa·s and 14.05 mPa·s | 9.9 mPa·s and 9.972 mPa·s and 9.95 mPa·s | 8.1 mPa·s | 6.88 mPa·s and 9.44 mPa·s and 7.01 mPa·s
101.3 kPa | – | – | – | 9.702 mPa·s | – | –

CC(=O)OC(C)=O
viscosity [mPa·s]
Settings | 298.15 K | 313.15 K | 323.15 K
101 kPa | 0.842 | 0.693 | –
101.33 kPa | 0.831 | – | 0.611

CCC(C)CC(C)C (configuration not stated)
100 kPa
Settings | viscosity [mPa·s]
293.15 K | 0.476
298.15 K | 0.455
303.15 K | 0.434
308.15 K | 0.416
313.15 K | 0.4

C1CCCC1
viscosity [mPa·s]
Settings | 293.15 K | 303.15 K | 313.15 K
100 kPa | 0.428 | 0.385 | 0.348
101 kPa | – | 0.387 | –
101.3 kPa | – | – | 0.3545

NCCO.O=S(=O)([N-]S(=O)(=O)C(F)(F)F)C(F)(F)F.[Li+]
Settings | viscosity [mPa·s]
323.15 K, 101 kPa | 1157

CC(C)(C)C1CCCCC1
102 kPa
Settings | viscosity [mPa·s]
293.15 K | 1.7
303.15 K | 1.42
313.15 K | 1.21
323.15 K | 1.04

CCN(CC)C(C)=O
Settings | viscosity [mPa·s]
298.16 K, 101 kPa | 1.226

C=CCc1ccc2c(c1)OCO2
Settings | viscosity [mPa·s]
298.15 K, 101 kPa | 2.29

CCC(=O)CC
viscosity
Settings | 298.15 K | 303.15 K | 308.15 K | 313.15 K | 318.15 K
100 kPa | – | 0.428 mPa·s | – | 0.366 mPa·s | –
101 kPa | 0.449 mPa·s and 0.437 mPa·s | – | 0.396 mPa·s and 0.393 mPa·s | 0.376 mPa·s and 0.376 mPa·s | –
101.33 kPa | 0.408 mPa·s | 0.424 mPa·s | 0.373 mPa·s | – | 0.351 mPa·s

C[n+]1ccn(CCCCCn2cc[n+](C)c2)c1.O=S(=O)([N-]S(=O)(=O)C(F)(F)F)C(F)(F)F.O=S(=O)([N-]S(=O)(=O)C(F)(F)F)C(F)(F)F
101 kPa
Settings | viscosity
293.15 K | 1125 mPa·s and 1123 mPa·s
303.15 K | 554.9 mPa·s and 556.8 mPa·s
313.15 K | 313.4 mPa·s and 310.4 mPa·s
323.15 K | 192.3 mPa·s and 188.8 mPa·s

CN1CCCC1=O
viscosity
Settings | 293.15 K | 298 K | 303 K | 303.15 K | 313 K | 313.15 K | 318 K | 323 K | 323.15 K
100 kPa | 1.853 mPa·s | – | – | – | – | – | – | – | –
101 kPa | 1.91 mPa·s | 1.61 mPa·s | 1.5 mPa·s | 1.623 mPa·s and 1.521 mPa·s | 1.29 mPa·s | 1.401 mPa·s and 1.3 mPa·s | 1.22 mPa·s | 1.12 mPa·s | 1.231 mPa·s

C1CCCC1 + CCCCCCCO
[1], 101.3 kPa
Settings | viscosity [mPa·s]
298.15 K, x1 = 0.0352 | 5.482
298.15 K, x1 = 0.0593 | 5.221
298.15 K, x1 = 0.0988 | 4.844
298.15 K, x1 = 0.1481 | 4.446
298.15 K, x1 = 0.2145 | 3.924
298.15 K, x1 = 0.2684 | 3.481
298.15 K, x1 = 0.3065 | 3.175
298.15 K, x1 = 0.3655 | 2.729
298.15 K, x1 = 0.4052 | 2.452
298.15 K, x1 = 0.4333 | 2.255
298.15 K, x1 = 0.4668 | 2.039
298.15 K, x1 = 0.4932 | 1.889
298.15 K, x1 = 0.5131 | 1.773
298.15 K, x1 = 0.5247 | 1.71
298.15 K, x1 = 0.5389 | 1.629
298.15 K, x1 = 0.5545 | 1.546
298.15 K, x1 = 0.5728 | 1.45
298.15 K, x1 = 0.5972 | 1.348
298.15 K, x1 = 0.612 | 1.272
298.15 K, x1 = 0.6459 | 1.141
298.15 K, x1 = 0.6823 | 1.009
298.15 K, x1 = 0.7149 | 0.909
298.15 K, x1 = 0.7429 | 0.819
298.15 K, x1 = 0.7801 | 0.734
298.15 K, x1 = 0.8099 | 0.672
298.15 K, x1 = 0.8367 | 0.622
298.15 K, x1 = 0.876 | 0.559
298.15 K, x1 = 0.9139 | 0.507
298.15 K, x1 = 0.9562 | 0.455
298.15 K, x2 = 0.0123 | 0.422
308.15 K, x1 = 0.0706 | 3.806
308.15 K, x1 = 0.107 | 3.567
308.15 K, x1 = 0.2112 | 2.906
308.15 K, x1 = 0.2927 | 2.434
308.15 K, x1 = 0.3502 | 2.124
308.15 K, x1 = 0.3903 | 1.904
308.15 K, x1 = 0.4235 | 1.762
308.15 K, x1 = 0.4744 | 1.536
308.15 K, x1 = 0.5101 | 1.397
308.15 K, x1 = 0.5124 | 1.388
308.15 K, x1 = 0.5273 | 1.333
308.15 K, x1 = 0.5473 | 1.254
308.15 K, x1 = 0.5733 | 1.164
308.15 K, x1 = 0.5957 | 1.094
308.15 K, x1 = 0.6126 | 1.033
308.15 K, x1 = 0.6337 | 0.973
308.15 K, x1 = 0.6691 | 0.873
308.15 K, x1 = 0.6936 | 0.817
308.15 K, x1 = 0.7266 | 0.741
308.15 K, x1 = 0.7759 | 0.645
308.15 K, x1 = 0.8235 | 0.567
308.15 K, x1 = 0.8612 | 0.513
308.15 K, x1 = 0.9001 | 0.465
308.15 K, x1 = 0.9538 | 0.407
318.15 K, x1 = 0.0663 | 3.159
318.15 K, x1 = 0.1607 | 2.659
318.15 K, x1 = 0.2747 | 2.102
318.15 K, x1 = 0.3487 | 1.774
318.15 K, x1 = 0.4227 | 1.477
318.15 K, x1 = 0.4685 | 1.326
318.15 K, x1 = 0.504 | 1.204
318.15 K, x1 = 0.5407 | 1.097
318.15 K, x1 = 0.5754 | 1.006
318.15 K, x1 = 0.6027 | 0.936
318.15 K, x1 = 0.6281 | 0.877
318.15 K, x1 = 0.6529 | 0.814
318.15 K, x1 = 0.6898 | 0.743
318.15 K, x1 = 0.7214 | 0.681
318.15 K, x1 = 0.7581 | 0.617
318.15 K, x1 = 0.8025 | 0.549
318.15 K, x1 = 0.8554 | 0.475
318.15 K, x1 = 0.9198 | 0.402
318.15 K, x1 = 0.9672 | 0.359

CC(=O)OC(C)=O + Oc1ccccc1
viscosity [mPa·s], [1], 101.33 kPa
Settings | 298.15 K | 323.15 K
x2 = 0.0899 | 0.922 | 0.666
x2 = 0.1347 | 0.98 | 0.706
x2 = 0.1492 | 1.014 | 0.733
x2 = 0.2953 | 1.267 | 0.896
x2 = 0.3588 | 1.412 | 0.951
x2 = 0.4184 | 1.559 | 1.05
x2 = 0.4673 | 1.706 | 1.1
x2 = 0.4678 | 1.707 | 1.1
x2 = 0.5 | 1.839 | 1.164
x2 = 0.5169 | 1.89 | 1.191
x2 = 0.5846 | 2.069 | 1.275
x2 = 0.6414 | 2.668 | 1.513
x2 = 0.78 | 3.958 | 2.017
x2 = 0.8878 | 5.906 | 2.623

CC(=O)OC(C)=O + O
viscosity [mPa·s], [1], 101 kPa
Settings | x1 = 0.2 | x1 = 0.4 | x1 = 0.45 | x1 = 0.5 | x1 = 0.6 | x1 = 0.8
298.15 K | 2.189 | 1.852 | 1.497 | 1.193 | 1.059 | 0.936
313.15 K | 1.484 | 1.294 | 1.104 | 0.921 | 0.835 | 0.735
